Here are results for six compounds from ChEMBL document CHEMBL3414470, “Synthesis and biological evaluation of 4-oxycoumarin derivatives as a new class of antifilarial agents” (Eur J Med Chem, 2015).

pIC50: −log10 of the molar value. Converted amounts (≈) assume the structure as drawn. The source made the active and inactive calls. The calls are words filed in the database; no cut-off is given here.

Series [1] is described as follows: Selectivity index, ratio of CC50 for African green monkey Vero cells to IC50 for Brugia malayi adult worm. The format is functional.
In series [2] the test system is Brugia malayi. The experiment in a line: Antifilarial activity against Brugia malayi adult worm assessed as reduction in motility at 0.156 uM after 5 days by MTT dye reduction assay. The format is functional. The following applies: 120 h. In general terms: Formazan colour is commonly taken as a measure of viable cells.
The subject of series [3] is Brugia malayi. In words: Antifilarial activity against Brugia malayi microfilaria assessed as reduction in motility at 0.019 uM after 5 days by MTT dye reduction assay. The settings on record: 120 h. The format is functional.
Series [4] deals with Brugia malayi. In words: Antifilarial activity against Brugia malayi adult worm assessed as reduction in motility at 0.039 uM after 5 days by MTT dye reduction assay. Type of series: functional. The settings on record: 120 h.
Series [5] has as its system Brugia malayi. The experiment in a line: Antifilarial activity against Brugia malayi microfilaria assessed as reduction in motility at 0.156 uM after 5 days by MTT dye reduction assay. The format is functional. The following applies: 120 h.
For series [6], the system named is Brugia malayi. The experiment in a line: Antifilarial activity against Brugia malayi adult worm infected in jird model assessed as adulticidal activity at 100 mg/kg, sc after 5 days measured till day 45 relative to control. Type of series: functional. The settings on record: route subcutaneous.
Series [7] concerns Brugia malayi. The experiment in a line: Antifilarial activity against Brugia malayi adult worm assessed as reduction in motility after 5 days by MTT dye reduction assay. The format is functional, organism-based.
Series [8] deals with Brugia malayi. The experiment in a line: Antifilarial activity against Brugia malayi microfilaria assessed as reduction in motility at 0.078 uM after 5 days by MTT dye reduction assay. Type of series: functional. The following applies: 120 h.
Series [9] relates to Brugia malayi. The experiment in a line: Antifilarial activity against Brugia malayi adult worm assessed as reduction in motility at 0.312 uM after 5 days by MTT dye reduction assay. The format is functional. The settings on record: 120 h.
Series [10] relates to Brugia malayi. The experiment in a line: Antifilarial activity against Brugia malayi adult worm infected in jird model assessed as sterile female at 100 mg/kg, sc after 5 days measured till day 45 relative to control. Type of series: functional. The following applies: route subcutaneous.
Series [11] has as its system Brugia malayi. In words: Antifilarial activity against Brugia malayi adult worm assessed as reduction in motility at 0.078 uM after 5 days by MTT dye reduction assay. Type of series: functional. The settings on record: 120 h.
Series [12] deals with Brugia malayi. The experiment in a line: Antifilarial activity against Brugia malayi microfilaria assessed as reduction in motility after 5 days by MTT dye reduction assay. The format is functional, organism-based.
Series [13] deals with Brugia malayi. In words: Antifilarial activity against Brugia malayi microfilariae infected in jird model assessed as microfilaricidal activity at 100 mg/kg, sc after 5 days measured till day 45 relative to control. The settings on record: route subcutaneous. The format is functional.
Series [14] relates to Brugia malayi. In words: Antifilarial activity against Brugia malayi microfilaria assessed as reduction in motility at 0.039 uM after 5 days by MTT dye reduction assay. The format is functional. The following applies: 120 h.
For series [15], the system named is Brugia malayi. In words: Antifilarial activity against Brugia malayi adult worm assessed as reduction in motility at 0.019 uM after 5 days by MTT dye reduction assay. The format is functional. The settings on record: 120 h.
Series [16] concerns Brugia malayi. The experiment in a line: Antifilarial activity against Brugia malayi microfilaria assessed as reduction in motility at 0.312 uM after 5 days by MTT dye reduction assay. Type of series: functional. The settings on record: 120 h.
Series [17] in a line: Selectivity index, ratio of CC50 for African green monkey Vero cells to IC50 for Brugia malayi microfilaria. The format is functional.
A short description of series [18]: Cytotoxicity against African green monkey Vero cells after 72 hrs by resazurin dye-based fluorescence assay. Type of series: cell-based. The following applies: chlorocebus sabaeus, Vero cells.
In series [19] the test system is Brugia malayi. In words: Antifilarial activity against Brugia malayi microfilaria assessed as reduction in motility at 5 uM after 5 days by MTT dye reduction assay. The format is functional. The following applies: 120 h.
Series [20] concerns Brugia malayi. The experiment in a line: Antifilarial activity against Brugia malayi adult worm assessed as reduction in motility at 1.25 uM after 5 days by MTT dye reduction assay. Type of series: functional. The settings on record: 120 h.
The test system of series [21] is Brugia malayi. The experiment in a line: Antifilarial activity against Brugia malayi microfilaria assessed as reduction in motility at 0.625 uM after 5 days by MTT dye reduction assay. The format is functional. The following applies: 120 h.
The test system of series [22] is Brugia malayi. In words: Antifilarial activity against Brugia malayi microfilaria assessed as reduction in motility at 1.25 uM after 5 days by MTT dye reduction assay. The following applies: 120 h. Type of series: functional.
Series [23] concerns Brugia malayi. In words: Antifilarial activity against Brugia malayi microfilaria assessed as reduction in motility at 2.5 uM after 5 days by MTT dye reduction assay. The following applies: 120 h. The format is functional.
The test system of series [24] is Brugia malayi. In words: Antifilarial activity against Brugia malayi adult worm assessed as reduction in motility at 5 uM after 5 days by MTT dye reduction assay. The settings on record: 120 h. Type of series: functional.
Series [25] concerns Brugia malayi. In words: Antifilarial activity against Brugia malayi adult worm assessed as reduction in motility at 2.5 uM after 5 days by MTT dye reduction assay. Type of series: functional. The following applies: 120 h.
Series [26] concerns Brugia malayi. The experiment in a line: Antifilarial activity against Brugia malayi adult worm assessed as reduction in motility at 0.625 uM after 5 days by MTT dye reduction assay. Type of series: functional. The following applies: 120 h.
Series [27] concerns Brugia malayi. In words: Antifilarial activity against Brugia malayi microfilaria assessed as reduction in motility at 10 uM after 5 days by MTT dye reduction assay. Type of series: functional, organism-based.
In series [28] the test system is Brugia malayi. The experiment in a line: Antifilarial activity against Brugia malayi adult worm assessed as reduction in motility at 10 uM after 5 days by MTT dye reduction assay. The format is functional, organism-based.
The subject of series [29] is Brugia malayi. The experiment in a line: Antifilarial activity against Brugia malayi microfilaria assessed as reduction in motility at 0.19 uM after 5 days by MTT dye reduction assay. The format is functional. The settings on record: 120 h.
In series [30] the test system is Brugia malayi. In words: Antifilarial activity against Brugia malayi adult worm assessed as reduction in motility at 0.19 uM after 5 days by MTT dye reduction assay. Type of series: functional. The following applies: 120 h.

Turning to `CCCCCCCC/C=C/CCCCCCCCNCC(O)COc1cc(=O)oc2ccccc12` (stereo unspecified), the figures for the “Ratio CC50/IC50” value in series [1] and in [17] were greater than 1063 and greater than 7692, respectively. The figures for the inhibition at 0.156 µM with Brugia malayi [2] and with Brugia malayi [5] were 45% and 75%, respectively. For the same compound, the inhibition at 0.019 µM worked out at 50% in the series with Brugia malayi [3] and 8.5% in the series with Brugia malayi [15]. Moreover, the values for the inhibition at 0.039 µM in the series with Brugia malayi [4] and with Brugia malayi [14] were 10.2% and 50%, respectively. Also, the Activity was found to be 69.4% in the series on Brugia malayi [6], 16.6% in the series with Brugia malayi [10] and 50.9% with Brugia malayi [13]. The pIC50 in the series with Brugia malayi [7] (Brugia malayi, 120 h) was 7.03; with Brugia malayi [12] (Brugia malayi, 120 h) it was 7.89. Also, the MIC in the series with Brugia malayi [7] (Brugia malayi, 120 h) came to 0.31 µM (≈ 0.151 µg/mL); with Brugia malayi [12] (Brugia malayi, 120 h), 0.31 µM (≈ 0.151 µg/mL). Further, the results for the inhibition at 0.078 µM in the series with Brugia malayi [8] and in the series on Brugia malayi [11] were 75% and 42%, respectively. The inhibition at 0.312 µM amounted to 90.4% in the series with Brugia malayi [9] and 100% with Brugia malayi [16]. In series [18], the CC50 at 72 h is greater than 100000 nM.
For the compound `Cc1ccc(NCC(O)COc2cc(=O)oc3ccccc23)cc1` (stereo unspecified), the “Ratio CC50/IC50” value in [1] is on record as greater than 72.4; in series [17], greater than 555.5. The inhibition at 5 µM in the series with Brugia malayi [19] came to 100%; with Brugia malayi [24], 78.9%. Besides, the Activity in the series with Brugia malayi [6] was 24.8%; with Brugia malayi [10] it was 0%; with Brugia malayi [13] it was 31.7%. Besides, the pIC50 is 5.86 with Brugia malayi [7] (Brugia malayi, 120 h) and 6.74 in the series with Brugia malayi [12] (Brugia malayi, 120 h). The MIC turned out to be 5 µM (≈ 1.63 µg/mL) in the series with Brugia malayi [7] (Brugia malayi, 120 h) and 2.5 µM (≈ 0.813 µg/mL) in the series with Brugia malayi [12] (Brugia malayi, 120 h). The inhibition at 1.25 µM in the series with Brugia malayi [20] is 12.8%; in the series with Brugia malayi [22], 75%. For the same compound, the inhibition at 0.625 µM with Brugia malayi [21] was determined as 75%; in the series with Brugia malayi [26], 8.9%. For the same compound, the inhibition at 0.312 µM was found to be 9.6% in the series with Brugia malayi [9] and 75% with Brugia malayi [16]. Also, the values for the inhibition at 2.5 µM in the series on Brugia malayi [23] and in the series with Brugia malayi [25] were 75% and 38.6%, respectively. Further, in series [18], the CC50 at 72 h was greater than 100000 nM.
Turning to `CCN(CC)C(=O)N1CCN(C)CC1` [DIETHYLCARBAMAZINE], the results for the Activity in the series with Brugia malayi [6], with Brugia malayi [10] and with Brugia malayi [13] were 33.3%, 0% and 39.5%, respectively. For the same compound, the MIC entry with Brugia malayi [7] and in the series on Brugia malayi [12] was “inactive” throughout.
As to `O=C(O)CCCNCC(O)COc1cc(=O)oc2ccccc12` (stereo unspecified), the inhibition at 5 µM in the series with Brugia malayi [19] was 1%; in the series with Brugia malayi [24], 17.5%. Also, the MIC entry in the series on Brugia malayi [7] and with Brugia malayi [12] was “inactive” each time. The result in the series with Brugia malayi [27] and in the series on Brugia malayi [28] was inactive.
`O=c1cc(OCC(O)CNC2CCCCC2)c2ccccc2o1` (stereo unspecified): the “Ratio CC50/IC50” value was greater than 277.7 in [1] and greater than 384.6 in series [17]. The Activity came out at 66.6% in the series with Brugia malayi [6], 0% in the series with Brugia malayi [10] and 31.8% with Brugia malayi [13]. The pIC50 with Brugia malayi [7] (Brugia malayi, 120 h) is 6.44; in the series with Brugia malayi [12] (Brugia malayi, 120 h) it was 6.59. The MIC turned out to be 2.5 µM (≈ 0.793 µg/mL) in the series on Brugia malayi [7] (Brugia malayi, 120 h) and 2.5 µM (≈ 0.793 µg/mL) in the series on Brugia malayi [12] (Brugia malayi, 120 h). In addition, the inhibition at 1.25 µM in the series on Brugia malayi [20] was 47%; in the series on Brugia malayi [22], 100%. In addition, the inhibition at 0.625 µM in the series with Brugia malayi [21] came out at 50%; in the series with Brugia malayi [26], 24.2%. The inhibition at 0.312 µM in the series with Brugia malayi [9] amounted to 16.2%; in the series on Brugia malayi [16] it was 50%. Further, the inhibition at 2.5 µM in the series on Brugia malayi [23] was 100%; with Brugia malayi [25], 92%. In series [18], this compound yielded a CC50 at 72 h greater than 100000 nM.
`CCCCNCC(O)COc1cc(=O)oc2ccccc12` (stereo unspecified): the “Ratio CC50/IC50” value is greater than 144.9 in series [1] and greater than 232.5 in series [17]. The pIC50 in the series on Brugia malayi [7] (Brugia malayi, 120 h) is 6.16; with Brugia malayi [12] (Brugia malayi, 120 h), 6.37. In addition, the MIC is 2.5 µM (≈ 0.728 µg/mL) in the series on Brugia malayi [7] (Brugia malayi, 120 h) and 2.5 µM (≈ 0.728 µg/mL) with Brugia malayi [12] (Brugia malayi, 120 h). Moreover, the inhibition at 1.25 µM was determined as 52.4% in the series on Brugia malayi [20] and 75% in the series with Brugia malayi [22]. Also, the inhibition at 0.625 µM is 50% with Brugia malayi [21] and 48.9% in the series on Brugia malayi [26]. Moreover, the inhibition at 0.312 µM turned out to be 46.9% in the series with Brugia malayi [9] and 1% in the series on Brugia malayi [16]. Also, the inhibition at 2.5 µM with Brugia malayi [23] came to 100%; with Brugia malayi [25], 84.9%. Besides, the values for the inhibition at 0.19 µM in the series with Brugia malayi [29] and with Brugia malayi [30] were 1% and 8.9%, respectively. The same compound yielded a CC50 at 72 h in series [18] greater than 100000 nM.

Usually inhibition stands for the share of the control response that was lost under treatment. By pIC50 is commonly meant −log10 of the IC50, conventionally taken in molar units. The term CC50 denotes the concentration giving 50% cytotoxicity.
